Reference: publication PMC6102577, “Discovery of Pyrazolo[4,3-c]quinolines Derivatives as Potential Anti-Inflammatory Agents through Inhibiting of NO Production” (Molecules : A Journal of Synthetic Chemistry and Natural …, 2018)
Where two headings read alike, the source gives them in different places.

How the values were obtained:
iNOS mRNA expression = assay: LPS-induced iNOS mRNA expression in RAW 264.7 cells (RT-PCR); type: cell-based; details: pretreated 2 h, LPS 0.1 μg/mL
From the text: Total RNA was extracted by Trizol-Reagent (Invirogen, Carlsbad, CA, USA) according to the manufacturer’s manual. One microgram of RNA was used for the reverse transcription of first strand cDNA using the oligo dT primers. Five microliters of cDNA were used for the amplification of iNOS and GAPDH (glyceraldehyde 3-phosphate dehydrogenase) mRNA expression. The primers for rat iNOS are as follows, forward: 5′-ACTGCGTCGCTTCATTAGGT-3′ and reverse: 5′-TAGGCAAGCGCTTTACCACT-3′. The primers for rat glyceraldehydes 3-phosphate dehydrogenase are as follows, forward: 5′-ATGGCACAGTCAAGGCTGAGA-3′ reverse: 5′-AGACGCCAGTAGACTCCACGAC-3′. The amplicons were electrophoresed on a 3% agarose gel and band intensities were measured using a spectrophotometer (Thermo Fisher Scientific, Waltham, MA, USA) and normalized against GAPDH.
Figure 3 Inhibitory effects of compound 2i and 2m on LPS-induced iNOS mRNA expression. Cells (5 × 10^5 cells/well) were pretreated with the indicated concentrations of tested compounds for 2 h before incubation with 0.1 μg/mL LPS for 9 h. Total RNA was prepared for RT-PCR analysis of iNOS mRNA expression in LPS-stimulated RAW 264.7 cells. GAPDH were used as internal controls for the RT-PCR assays3.4. Inhibition of LPS-inducible COX-2 expression.

[1] = system: LPS-stimulated NO production in RAW 264.7 cells; assay: Inhibition of LPS-induced NO production (nitrite accumulation, Griess reaction) in RAW 264.7 cells; type: cell-based; details: Mus musculus
Description: Treatment of Raw 264.7 cells with LPS (0.1 μg/mL) for 24 h induced NO production which were assessed by measuring the accumulation of nitrite, a stable metabolite of NO, in the media based on Griess reaction. […] However, compound 2a was also highly cytotoxic, in which the survival rate of RAW 264.7 cells was only 9% at a drug concentration of 10 μM. […] The position of substitution play an important role in which substitution at para-position is usually more favorable than its ortho- or meta- counterpart in the inhibitory activity on the LPS-induced NO production. […] Various substituted groups have been introduced on the para-position of the phenyl ring.
Raw 264.7 cells, purchased from Bioresource Collection and Research Center, Taiwan, were cultured in DMEM, supplemented with 5% fetal bovine serum, 100 units/mL of penicillin, 100 μg/mL of streptomycin, 2 mM L-glutamine, and 1 mM non-essential amino acids in a 10-cm plate at a density of 1 × 10^6 cells/mL, at 37 °C in a humidified atmosphere containing 5% CO2.
Nitrite was measured by adding 100 μL of the Griess reagent (1% sulfanilamide and 0.1% N-(1-naphthyl)ethylenediamine dihydrochloride in 5% phosphoric acid) to 100 μL of medium for 5 min. The optical density at 550 nm (OD550) was measured with a microplate reader. Concentrations were calculated by comparison with the OD550 of a standard solution of sodium nitrite prepared in culture medium.

RAW 264.7 cells = assay: Cell viability (XTT method) of RAW 264.7 cells; type: cell-based; details: compound 10 μM, 24 h, means ± S.D.
Description: To evaluate whether the suppressive effect of compounds on NO production is related to cell viability, Raw 264.7 cells were treated with LPS for 24 h, and washed with 500 μL of phosphate buffer solution (PBS) before resuspended in 1 mL of culture medium. Cell viability tests were run in parallel with NO production assays with an initial cell density of 5 × 10^3 cells/well in the presence or absence of test compounds at 10 μM or 0.1% DMSO as control.

iNOS protein expression = assay: LPS-induced iNOS protein expression in RAW 264.7 cells (western blot); type: cell-based, murine; details: pretreated 2 h, LPS 0.1 μg/mL 24 h
Description: (§1) The effects of compounds 2i and 2m on iNOS and COX-2 protein expression in LPS stimulated Raw 264.7 cell were assessed by western blot. Briefly, Raw 264.7 cells were pretreated with tested compound for 2 h before stimulation in the presence or absence of LPS (0.1 μg/mL). Cells were harvested and lysed with RIPA lysis buffer (50 mM Tris–Cl, pH 8.0, 150 mM NaCl, 0.1% SDS, 0.5% NP-40, 1% sodiumdeoxycholate, 1 mM phenylmethyl-sulfonylfluoride, 1 mM EDTA, no added proteinase) at 24 h after treatment. The total protein concentration in the cell lysates was measured according to the method described by Bradford. Equal amounts (15 μg) of protein were loaded and separated by using 8% SDS–PAGE and analyzed by western blot (ECL Amersham, Bensheim, Germany). The relative expression of proteins was quantified densitometrically using the software LabWorks 4.5 and was normalized againstβ-actin.
(§2) Figure 2 Inhibition of iNOS expression by 2i and 2m in LPS-stimulated RAW 264.7 cells. Cells (5 × 10^5 cells/well) were pretreated with the indicated concentrations of tested compounds for 2 h before incubation with 0.1 μg/mL LPS for 24 h. Cell lysates were then prepared and western blots were performed using an antibody specific for murine iNOS.

COX-2 protein expression = assay: LPS-inducible COX-2 protein expression in RAW 264.7 cells (western blot); type: cell-based, murine; details: pretreated 2 h, LPS 0.1 μg/mL 24 h
Description: as §1
as §2, with “Figure 4” for “Figure 2”, “of COX-2” for “of iNOS”, “by compound” for “by”, “murine COX-2.” for “murine iNOS.”

[2] = NO-scavenging activity (sodium nitroprusside, nitrite by Griess reaction); details: SNP 2.5 mM, compound 10 μM, light, room temperature, 60 min
Description: NO-scavenging effects of pyrazolo[4,3-c]quinolines 2i and 2m were measured according to the reported method. Sodium nitroprusside (SNP) (2.5 mM) was incubated alone or in combination with tested compound (10 μM) or 1400W(10 μM) in light at room temperature for 60 min.
To understand the inhibitory effects of compounds 2i and 2m on NO production, sodium nitroprusside (SNP) was freshly prepared at […] in PBS was incubated alone or in combination with 10 µM of the different compounds. SNP is an inorganic complex where NO is found as NO^+ and light irradiation is necessary for the release of NO. Therefore, incubation mixtures were incubated in light at room temperature, and nitrite levels were determined after 60 min by Griess reaction.
Figure 1 NO-scavenging effects of 1400W, compounds 2i and 2m. SNP solution (2.5 mM) in PBS was incubated alone or with tested compound (10 μM) or 1400W (10 μM) in the presence of light at room temperature for 60 min.

IC50 ([1]; RAW264.7, 24 h, RAW 264.7 cells, LPS 0.1 μg/mL 24 h, means ± S.D., read-out: IC50 (inhibition of LPS-induced NO production)): 0.19 ± 0.05 µM
IC50 ([1]; RAW264.7, training dataset, negative logarithm of IC50 values, read-out: Observed pIC50 (converted)): 0.19 µM
SMILES: Nc1n[nH]c2c1c(Nc1ccc(O)cc1)nc1ccccc12 [Compound 2i, 3-amino-4-(4-hydroxyphenylamino)-1H-pyrazolo[4,3-c]-quinoline]
Inhibition of LPS-stimulated iNOS mRNA expression (iNOS mRNA expression): inhibited the LPS-stimulated iNOS mRNA production in a dose-dependent manner
inhibition at 10 µM ([1]; RAW264.7, RAW 264.7 cells, LPS 0.1 μg/mL 24 h, compound 10 μM, means ± S.D., read-out: Percent Inhibition of NO Production at 10 μM): 102 ± 2.63%
Cell Survival Rate at 10 μM (RAW 264.7 cells): 87.84 ± 0.15%
Inhibition of LPS-induced iNOS protein expression (iNOS protein expression): more potent inhibitory activities than 2m
Inhibition of LPS-induced COX-2 protein expression (COX-2 protein expression): effectively suppressed the induction of COX-2 protein expression by LPS
NO-scavenging effect (levels of nitrite from SNP) [2]: did not affect the levels of nitrite
